Measurements reported in ChEMBL document CHEMBL1201862, “PubChem BioAssay data set” (2004).
Active and inactive are the calls of the source.

How the values were obtained:
[1] = molecular target: T1, Carboxy-terminal domain RNA polymerase II polypeptide A small phosphatase 1 (Homo sapiens, UniProt Q9GZU7); assay: CTDSP1 inhibitors, concentration-response, biochemical, absorbance readout, ultra-high-throughput screen actives (AID 540297); format: functional
T1 sequence (Q9GZU7 whole entry): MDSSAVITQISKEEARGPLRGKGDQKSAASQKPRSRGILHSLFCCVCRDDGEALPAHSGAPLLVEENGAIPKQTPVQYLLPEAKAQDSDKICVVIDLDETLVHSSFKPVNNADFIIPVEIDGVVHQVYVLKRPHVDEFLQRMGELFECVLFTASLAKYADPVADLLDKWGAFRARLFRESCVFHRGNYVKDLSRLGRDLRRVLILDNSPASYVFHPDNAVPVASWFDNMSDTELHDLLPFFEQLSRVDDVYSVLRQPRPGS

[2] = molecular target: Glucose-6-phosphate 1-dehydrogenase (Homo sapiens, UniProt P11413); assay: inhibition of Homo sapiens G6PD, dose series – biochemical, fluorescence, selectivity assay for P. falciparum G6PD inhibitor project, dose response (AID 504792); format: functional
Sequence of Glucose-6-phosphate 1-dehydrogenase (P11413 whole entry): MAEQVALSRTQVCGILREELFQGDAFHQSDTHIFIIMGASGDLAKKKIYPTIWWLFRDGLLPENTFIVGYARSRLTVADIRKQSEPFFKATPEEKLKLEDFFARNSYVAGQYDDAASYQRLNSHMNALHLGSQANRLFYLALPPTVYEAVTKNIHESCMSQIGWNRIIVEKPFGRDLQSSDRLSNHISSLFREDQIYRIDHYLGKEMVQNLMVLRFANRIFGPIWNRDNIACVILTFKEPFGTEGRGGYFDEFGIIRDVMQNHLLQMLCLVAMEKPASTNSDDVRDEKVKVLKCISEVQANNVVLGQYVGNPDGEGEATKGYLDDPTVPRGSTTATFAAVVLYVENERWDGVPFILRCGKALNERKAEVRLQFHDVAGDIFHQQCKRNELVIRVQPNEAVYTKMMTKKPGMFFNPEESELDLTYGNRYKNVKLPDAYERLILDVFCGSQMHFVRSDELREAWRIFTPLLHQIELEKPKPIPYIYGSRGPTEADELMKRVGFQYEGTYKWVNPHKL

[3] = molecular target: T2, Calpain-2 catalytic subunit (Sus scrofa, UniProt P43367); assay: m-calpain protease blockers, concentration series – biochemical, fluorogenic peptide substrate, dose response (AID 1420); format: functional
T2 sequence (P43367 whole entry): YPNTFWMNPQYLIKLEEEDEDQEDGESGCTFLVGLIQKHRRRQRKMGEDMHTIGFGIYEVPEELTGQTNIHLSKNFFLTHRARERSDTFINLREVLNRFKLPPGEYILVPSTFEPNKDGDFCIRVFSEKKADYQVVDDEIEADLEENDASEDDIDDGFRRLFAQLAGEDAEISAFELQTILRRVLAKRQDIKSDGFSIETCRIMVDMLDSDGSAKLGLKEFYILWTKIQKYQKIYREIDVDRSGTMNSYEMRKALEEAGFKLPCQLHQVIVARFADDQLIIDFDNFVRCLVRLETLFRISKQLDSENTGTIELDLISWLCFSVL

[4] = NIH-3T3 fibroblast cytotoxicity, dose response, cytotoxicity control, cell-based, fluorescence, Alamar Blue, secondary assay (AID 2327); format: functional;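 further: NIH-3T3 mouse fibroblasts cultured with fluconazole at 8 µg/mL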
[5] = fluconazole-exposed Candida albicans growth modulators – fluorescence, retest, confirmation (AID 2467); format: functional, cell-based
[6] = molecular target: FAD-linked sulfhydryl oxidase ALR (Homo sapiens, UniProt P55789); assay: ALR-catalysed DTT oxidation blockers – biochemical, H2O2 detection, luminescence, cherry-pick, dose response (AID 493248)
Sequence of FAD-linked sulfhydryl oxidase ALR (P55789 whole entry): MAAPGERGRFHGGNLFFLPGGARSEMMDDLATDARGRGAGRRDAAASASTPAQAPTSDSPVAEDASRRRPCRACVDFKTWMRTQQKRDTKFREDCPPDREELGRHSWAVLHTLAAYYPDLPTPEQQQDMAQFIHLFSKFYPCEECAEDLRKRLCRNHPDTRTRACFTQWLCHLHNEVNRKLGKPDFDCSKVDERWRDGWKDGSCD

cells [7] = format: functional, cell-based
cells [8] = format: functional, cell-based; remark: listed apart in the source
Cytochrome P450 2D6 = Cytochrome P450 2D6 (Homo sapiens, UniProt P10635);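 further: CYP2D6 member of a cytochrome P450 panel assay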
Sequence of Cytochrome P450 2D6 (P10635 whole entry): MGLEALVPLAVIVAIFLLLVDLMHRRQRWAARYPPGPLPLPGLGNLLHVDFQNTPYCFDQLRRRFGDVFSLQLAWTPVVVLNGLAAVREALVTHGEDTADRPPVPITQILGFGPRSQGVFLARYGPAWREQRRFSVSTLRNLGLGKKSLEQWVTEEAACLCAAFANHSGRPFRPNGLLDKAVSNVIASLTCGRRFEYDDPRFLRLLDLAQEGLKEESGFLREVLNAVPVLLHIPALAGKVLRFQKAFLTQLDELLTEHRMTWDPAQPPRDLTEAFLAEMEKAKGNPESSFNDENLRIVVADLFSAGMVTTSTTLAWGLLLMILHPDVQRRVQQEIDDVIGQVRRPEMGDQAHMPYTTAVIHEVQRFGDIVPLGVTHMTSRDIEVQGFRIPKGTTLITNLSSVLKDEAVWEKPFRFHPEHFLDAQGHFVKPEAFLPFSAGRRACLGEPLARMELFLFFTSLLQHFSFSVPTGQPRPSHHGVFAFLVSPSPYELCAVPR

[9] = viability of uninfected HEp-2 cells – cell-based, HTS, cytotoxicity control for RSV inhibitor project, dose response (AID 2410); format: functional; conditions: human respiratory syncytial virus
Streptococcus = assay: GAS UMAA2166 growth inhibition – luminescence, BacTiterGlo, counter-screen for streptokinase expression inhibitor project, dose response (AID 1915); format: functional, organism-based;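 further: potency for reduction of bacterial viability or growth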
[10] = molecular target: T3, Heat shock factor protein 1 (Mus musculus, UniProt P38532); assay: decrease of HSF1-responsive luciferase luminescence – cell-based, NIH3T3, dose retest, confirmation (AID 2382); format: functional;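 further: NIH3T3 fibroblasts with HSF1-driven luciferase reporter stressed by proteasome inhibitor MG132; luminescence from HSF1-driven luciferase expression after 8 hours of MG132 stress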
T3 sequence (P38532 whole entry): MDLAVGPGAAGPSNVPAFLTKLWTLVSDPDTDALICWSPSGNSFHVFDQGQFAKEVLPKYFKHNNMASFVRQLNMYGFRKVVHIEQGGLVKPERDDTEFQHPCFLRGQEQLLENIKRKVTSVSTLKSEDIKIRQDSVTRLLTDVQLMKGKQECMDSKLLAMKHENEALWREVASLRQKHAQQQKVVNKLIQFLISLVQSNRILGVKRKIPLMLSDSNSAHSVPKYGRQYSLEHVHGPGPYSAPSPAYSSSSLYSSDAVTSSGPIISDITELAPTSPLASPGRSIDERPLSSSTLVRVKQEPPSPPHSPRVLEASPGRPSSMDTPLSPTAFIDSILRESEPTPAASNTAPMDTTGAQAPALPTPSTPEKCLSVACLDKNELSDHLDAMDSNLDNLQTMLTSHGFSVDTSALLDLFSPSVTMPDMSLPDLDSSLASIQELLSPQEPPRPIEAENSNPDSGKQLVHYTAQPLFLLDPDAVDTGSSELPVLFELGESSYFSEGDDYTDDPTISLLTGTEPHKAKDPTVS

[11] = reduction of Shn3 3'UTR-driven luciferase in osteoblasts – cell-based, Clone20 osteoblasts, firefly luciferase, cherry-picked, dose response (AID 624132); format: functional;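 further: firefly luciferase luminescence from reporter carrying the Shn3 3'UTR in osteoblasts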
[12] = Trypanosoma cruzi growth suppression in host cells – NIH3T3 host cells, beta-gal luminescence, confirmation (AID 2044); format: functional, cell-based;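 further: intracellular parasites grown in NIH/3T3 mouse fibroblasts as host cells; luminescent beta-galactosidase reporter signal from transgenic T. cruzi replicating inside host cells; inhibitors lower the luminescence signal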
Paired box protein Pax-8 = Paired box protein Pax-8 (Homo sapiens, UniProt Q06710); assay: PAX8 transcriptional activity inhibition in RMG-I – RMG-I cells, luciferase, cherry-pick, dose response (AID 687027); format: functional, cell-based;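 further: luciferase reporter driven by Pax8 target thyroperoxidase promoter measured by SteadyGlo luminescence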
Sequence of Paired box protein Pax-8 (Q06710 whole entry): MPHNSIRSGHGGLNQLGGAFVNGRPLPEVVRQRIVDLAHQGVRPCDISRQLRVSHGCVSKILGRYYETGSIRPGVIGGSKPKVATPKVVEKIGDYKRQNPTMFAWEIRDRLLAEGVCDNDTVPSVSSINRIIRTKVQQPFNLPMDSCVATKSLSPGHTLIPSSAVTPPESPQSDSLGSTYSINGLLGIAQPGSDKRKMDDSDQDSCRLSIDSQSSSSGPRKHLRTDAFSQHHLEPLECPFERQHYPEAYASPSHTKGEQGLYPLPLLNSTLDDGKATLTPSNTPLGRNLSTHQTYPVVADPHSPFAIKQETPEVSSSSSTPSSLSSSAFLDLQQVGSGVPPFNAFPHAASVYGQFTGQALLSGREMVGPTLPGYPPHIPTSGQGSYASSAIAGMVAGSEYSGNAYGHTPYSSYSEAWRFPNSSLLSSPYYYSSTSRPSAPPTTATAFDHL

[13] = loss of viability in HepG2 cells – cell-based, CellTiter-Glo, cherry-picked, cytotoxicity control for Shn3 inhibitor project, dose response (AID 624134); format: functional
Streptokinase A = molecular target: T4, Streptokinase A (Streptococcus pyogenes serotype M1, UniProt P10520); assay: viability-normalized secreted streptokinase activity reduction – plasminogen activation absorbance, OD405, dose response (AID 1914); format: functional, Streptococcus pyogenes M1 GAS;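 further: secreted streptokinase activity via plasminogen activation per viability signal from cell pellet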
T4 sequence (P10520 whole entry): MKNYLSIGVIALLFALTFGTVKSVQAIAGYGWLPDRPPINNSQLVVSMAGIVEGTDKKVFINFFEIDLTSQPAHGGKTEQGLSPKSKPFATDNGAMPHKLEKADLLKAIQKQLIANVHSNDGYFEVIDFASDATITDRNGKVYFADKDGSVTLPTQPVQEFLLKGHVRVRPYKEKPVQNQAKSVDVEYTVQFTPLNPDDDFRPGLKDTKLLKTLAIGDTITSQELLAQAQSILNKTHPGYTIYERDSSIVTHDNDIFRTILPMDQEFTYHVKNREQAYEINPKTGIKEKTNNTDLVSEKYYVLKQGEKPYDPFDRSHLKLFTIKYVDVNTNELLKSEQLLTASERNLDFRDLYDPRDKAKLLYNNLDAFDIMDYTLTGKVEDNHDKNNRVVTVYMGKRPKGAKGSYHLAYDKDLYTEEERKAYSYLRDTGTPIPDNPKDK

[14] = test system: Streptococcus sp. 'group A'; assay: Streptococcus pyogenes SK(-)GAS viability under kanamycin – luminescence, BacTiterGlo, confirmation, counter-screen for streptokinase expression inhibitor project, dose response (AID 1900); format: functional, organism-based
[15] = NIH3T3 cell viability loss – ATP luminescence, mouse fibroblasts, counter-screen, dose response (AID 2010); format: functional, cell-based;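 further: cells exposed to compound for about 90 hours before reading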
[16] = non-specific 3'UTR reporter inhibition in Clone20-Shn3RL – cell-based, Renilla luciferase, cherry-picked, counter-screen for Shn3 inhibitor project, dose response (AID 624133); format: functional

## Cc1oc2c(C)c3oc(=O)c(CC(=O)N[C@@H](CCCNC(N)=O)C(=O)O)c(C)c3cc2c1C
[1]
  IC50: 9.59 µM (active)

## CCn1c(N)c(C(=O)NC)sc1=S
[2]
  IC50: > 80 µM (inactive)

## CCn1c(SCc2ccc(F)cc2)nnc1C1CCN(S(=O)(=O)c2ccc(OC)cc2)CC1
[3]
  IC50: 26.2 µM (not active)

## CCn1c(=O)c(C(=O)NCc2cccnc2)c(O)c2ccccc21
[4]
  EC50: > 150 µM (inactive)
[5]
  EC50: > 38 µM (not active)

## COc1ccc(OC)c(NC(=O)c2ccc3c(=O)n(CCc4ccccc4)c(=S)[nH]c3c2)c1
[3]
  IC50: 13 µM (not active)

## O=C(CNC(=O)c1ccccc1)NCC(=O)OCC(=O)c1ccc([N+](=O)[O-])cc1
[2]
  IC50: > 80 µM (inactive)

## COc1ccc(NC(=O)NC(C)c2ccccc2)cc1 (stereo not given)
[4]
  EC50: 73.5 µM (active)
[5]
  EC50: > 38 µM (not active)

## CCCc1cc(C(=O)Nc2sc3c(c2C#N)CCC3)no1
[4]
  EC50: > 150 µM (inactive)
[5]
  EC50: 1.02 µM (active)

## COc1ccc2c(c1OC)C(=O)N1N=C(c3ccc(O)cc3)CC21 (stereo not given)
[6]
  AC50: 1.11 µM (active)
[4]
  EC50: > 150 µM (inactive)

## C[N+]1(CC(=O)OCCCc2ccccc2)CCCC1
[1]
  IC50: 6.36 µM (active)

## CCc1ccc(NC(=O)C[S+]([O-])CC(=O)Nc2ccc(F)cc2F)cc1 (stereo not given)
[1]
  IC50: 11.2 µM (active)

## CCC(C)c1ccccc1OCCn1ccnc1 (stereo not given)
[2]
  IC50: > 80 µM (inactive)

## Cc1cc(=O)oc2cc(OCC(=O)N3c4ccccc4NC(=O)C3(C)C)ccc12
[1]
  IC50: 8.21 µM (active)

## Cc1cc(C(=O)O)oc(=O)c1
Cells [7]
  EC50: 58.9 µM (active)
Cells [8]
  EC50: > 350 µM (not active)

## CCCCn1c(N)c(-c2nc3ccccc3o2)c2c([N+](=O)[O-])nn(C)c(=O)c21
[1]
  IC50: 4.75 µM (active)

## Cc1ccc(CSc2ccc3nnc(-c4cccnc4)n3n2)cc1
[3]
  IC50: 5.64 µM (active)

## COc1ccc(CNC(=O)C2CCN(S(=O)(=O)c3ccc(-c4nn[nH]n4)cc3)CC2)cc1
[3]
  IC50: 14.9 µM (not active)

## O=C(Nc1ccccc1N1CCOCC1)c1cc(F)cc(F)c1
[4]
  EC50: > 160 µM (inactive)
[5]
  EC50: 1.64 µM (active)

## COc1cccc(C2=CC(c3ccccc3)n3nnnc3N2)c1 (stereo not given)
Cytochrome P450 2D6
  AC50: 31.6 µM (inconclusive)
[3]
  IC50: 2.32 µM (not active)

## COc1ccc2c(c1)-c1nc(NC(=O)c3ccco3)sc1CC2
[9]
  CC50: 18.4 µM (active)
Cells [7]
  EC50: 23 µM (active)
Cells [8]
  EC50: > 350 µM (not active)

## Cc1ccc(C)c(N2CCN(C(=O)CCCCCn3c(=S)[nH]c4ccc(N5CCOCC5)cc4c3=O)CC2)c1
Streptococcus
  EC50: 140 µM (active)
[10]
  EC50: 5.28 µM (active)
[11]
  AC50: 1.99 µM (active)
[12]
  EC50: 0.348 µM (active)
Paired box protein Pax-8
  AC50: 5.97 µM (active)
[13]
  AC50: 5.02 µM (active)
Streptokinase A
  EC50: > 150 µM (not active)
[14]
  EC50: 6.52 µM (active)
[15]
  EC50: 16.5 µM (active)
[16]
  AC50: 3.48 µM (active)

## CC(=O)Nc1ccc(S(=O)(=O)[N-]C2=C([n+]3ccn(-c4ccccn4)c3)C(=O)c3ccccc3C2=O)cc1
Cells [7]
  EC50: > 350 µM (not active)
Cells [8]
  EC50: > 350 µM (not active)

## CC(C)NC(=O)C1CCCN(S(C)(=O)=O)C1 (stereo not given)
[3]
  IC50: 7.4 µM (not active)

## Cc1ccc(OCC(=O)NNC(=O)C(C)Sc2ncnc3sc(C)c(C)c23)cc1 (stereo not given)
[3]
  IC50: 2.51 µM (not active)

## C=C(C)CNC(=S)N/N=C/c1c(F)cccc1F
[3]
  IC50: 20.3 µM (not active)

## COc1cccc(-c2c(C(=O)N/N=C/c3ccc(C)o3)nnn2-c2nonc2N)c1
[2]
  IC50: > 80 µM (inactive)
